Each compound was assayed against Intestinal-type alkaline phosphatase (Homo sapiens, UniProt P09923) (assay: activation of human intestinal alkaline phosphatase – biochemical, luminescent, uHTS hits, set 2, dose response (AID 488817)).
Sequence of Intestinal-type alkaline phosphatase (P09923 whole entry): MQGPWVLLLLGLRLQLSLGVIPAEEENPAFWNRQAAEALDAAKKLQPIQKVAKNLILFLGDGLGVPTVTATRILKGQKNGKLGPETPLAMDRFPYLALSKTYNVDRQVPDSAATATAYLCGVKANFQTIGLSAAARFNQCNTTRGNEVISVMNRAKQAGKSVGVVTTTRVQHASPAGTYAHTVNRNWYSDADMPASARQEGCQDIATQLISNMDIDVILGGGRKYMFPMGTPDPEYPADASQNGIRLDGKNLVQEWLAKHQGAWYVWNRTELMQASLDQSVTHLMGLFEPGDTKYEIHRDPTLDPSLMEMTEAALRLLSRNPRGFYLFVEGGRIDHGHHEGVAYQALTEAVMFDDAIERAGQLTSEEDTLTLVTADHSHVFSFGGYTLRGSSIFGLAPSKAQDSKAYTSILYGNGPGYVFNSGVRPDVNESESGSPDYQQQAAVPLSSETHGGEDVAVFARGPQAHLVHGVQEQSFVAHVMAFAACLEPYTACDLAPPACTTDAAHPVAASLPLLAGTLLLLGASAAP

EC50 [µM]	Compound
11.3	Cc1c(C(=O)NN=Cc2ccc(O)cc2O)[nH][nH]c1=O
27.5	Cc1cc(Br)ccc1SCC(=O)OCC(=O)C(C#N)c1nc2ccccc2[nH]1 (stereo not given) [2-[(4-bromo-2-methylphenyl)thio]acetic acid [3-cyano-3-(1,3-dihydrobenzimidazol-2-ylidene)-2-oxopropyl] ester]
23.2	C=c1[nH]n(-c2nc3ccccc3[nH]2)c(=O)c1=CN(C)C [(4E)-2-(1H-benzimidazol-2-yl)-4-(dimethylaminomethylidene)-5-methyl-pyrazol-3-one]
12.5	CCc1ccc(CN=Nc2ncnc3nc[nH]c23)cc1 [MLS000419199]
60	Cn1c(C(C#N)C(=O)c2ccc(Br)s2)nc2ccccc21 (stereo not given) [MLS001167394]
9.07	COc1cccc(C=NNC(=O)c2[nH][nH]c(=O)c2C)c1O [N'-[(E)-(5-methoxy-6-oxidanylidene-cyclohexa-2,4-dien-1-ylidene)methyl]-4-methyl-5-oxidanylidene-1,4-dihydropyrazole-3-carbohydrazide]
31	O=c1c2ccccc2nc(N=NCc2c(O)ccc3ccccc23)n1O [SMR000145705]
12.4	O=C(Nn1c(O)csc1=S)C(=O)Nn1c(O)csc1=S [SMR000349781]
8.77	O=Nc1[nH]c(=O)c(CC(=O)c2ccccc2)nc1NO [SMR000539633]
11.4	CCOC(=O)c1c(C)[nH]c(C(=O)N/N=C/C2C=C([N+](=O)[O-])C=CC2=O)c1C (stereo not given) [ethyl 2,4-dimethyl-5-[[[(E)-(3-nitro-6-oxocyclohexa-2,4-dien-1-ylidene)methyl]amino]carbamoyl]-1H-pyrrole-3-carboxylate]

— BindingDB's records for doi:10.7270/Q2CF9NKD (Burnham Center For Chemical Genomics, 2010)
